Laboratory results taken from patent US20250357519A1, “APPLICATIONS OF O2-INSENSITIVE FORMATE DEHYDROGENASE” (UNIVERSITY OF MARYLAND, BALTIMORE, priority 2022, published 2025).
Read-outs that look alike come from different tables or passages of the source.

What was measured:
[1] = tested on: Desulfovibrio vulgaris Hildenborough (DvH) Mo-FDH3, wild-type natively-purified (Mo-FDH3^WT); settings: pH 7.6, RT, 2 mM BV, 0.25 nM enzyme; Da Silva et al (2011); cited from earlier work
[2] = target: T1, Desulfovibrio vulgaris Hildenborough (DvH) FDH2, recombinant Strep-tag II-tagged (FDH2^Rec), large subunit DVU2482 SEQ ID NO: 31, small subunit DVU2481 SEQ ID N (Nitratidesulfovibrio vulgaris, UniProt Q728X0); assay: Benzyl viologen (BV) assay of formate oxidation
T1 sequence (Q728X0 36-1003): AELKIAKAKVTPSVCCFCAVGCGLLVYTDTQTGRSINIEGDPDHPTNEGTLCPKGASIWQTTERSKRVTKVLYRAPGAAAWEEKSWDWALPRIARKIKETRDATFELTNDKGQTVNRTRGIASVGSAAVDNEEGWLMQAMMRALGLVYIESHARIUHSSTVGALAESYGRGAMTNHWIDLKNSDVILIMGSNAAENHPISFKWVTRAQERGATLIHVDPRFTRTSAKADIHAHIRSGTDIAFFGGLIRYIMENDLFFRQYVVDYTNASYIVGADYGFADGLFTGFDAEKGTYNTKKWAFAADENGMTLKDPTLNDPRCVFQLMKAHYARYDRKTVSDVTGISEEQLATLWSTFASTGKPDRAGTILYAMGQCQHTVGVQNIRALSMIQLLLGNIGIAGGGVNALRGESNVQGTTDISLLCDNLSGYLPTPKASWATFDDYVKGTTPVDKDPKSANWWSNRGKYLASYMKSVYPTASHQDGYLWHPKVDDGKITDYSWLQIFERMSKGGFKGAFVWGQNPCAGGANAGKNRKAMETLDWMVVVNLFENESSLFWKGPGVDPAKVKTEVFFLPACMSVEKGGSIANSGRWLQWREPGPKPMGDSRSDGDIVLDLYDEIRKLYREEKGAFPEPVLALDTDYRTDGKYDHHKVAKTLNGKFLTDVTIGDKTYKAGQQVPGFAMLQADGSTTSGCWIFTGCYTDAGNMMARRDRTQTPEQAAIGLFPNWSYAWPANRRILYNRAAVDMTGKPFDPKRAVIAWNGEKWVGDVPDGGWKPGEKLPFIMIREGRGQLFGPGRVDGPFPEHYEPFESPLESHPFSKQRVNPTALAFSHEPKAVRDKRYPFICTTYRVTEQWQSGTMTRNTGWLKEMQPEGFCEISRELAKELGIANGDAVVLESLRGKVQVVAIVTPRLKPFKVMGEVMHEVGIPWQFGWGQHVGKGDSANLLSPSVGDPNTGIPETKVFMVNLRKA
T1 sequence (Q728X1 1-260 partner): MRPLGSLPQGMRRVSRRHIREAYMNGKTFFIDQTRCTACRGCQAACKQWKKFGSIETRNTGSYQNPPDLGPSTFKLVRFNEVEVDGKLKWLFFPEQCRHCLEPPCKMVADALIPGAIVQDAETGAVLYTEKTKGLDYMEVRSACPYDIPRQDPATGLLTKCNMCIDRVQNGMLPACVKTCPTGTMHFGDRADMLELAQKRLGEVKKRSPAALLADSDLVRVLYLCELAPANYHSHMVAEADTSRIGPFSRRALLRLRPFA

[3] = target: T2, Desulfovibrio vulgaris Hildenborough (DvH) W-FDH1, recombinant (W-FDH1^REC), large subunit DVU0587 SEQ ID NO: 29, small subunit DVU0588 SEQ ID NO: 30 (Nitratidesulfovibrio vulgaris, UniProt Q72EJ1); settings: cited from earlier work
T2 construct: mature large subunit lacks Tat signal peptide; literature data of Oliveira et al. reanalysed
T2 sequence (Q72EJ1 36-1005): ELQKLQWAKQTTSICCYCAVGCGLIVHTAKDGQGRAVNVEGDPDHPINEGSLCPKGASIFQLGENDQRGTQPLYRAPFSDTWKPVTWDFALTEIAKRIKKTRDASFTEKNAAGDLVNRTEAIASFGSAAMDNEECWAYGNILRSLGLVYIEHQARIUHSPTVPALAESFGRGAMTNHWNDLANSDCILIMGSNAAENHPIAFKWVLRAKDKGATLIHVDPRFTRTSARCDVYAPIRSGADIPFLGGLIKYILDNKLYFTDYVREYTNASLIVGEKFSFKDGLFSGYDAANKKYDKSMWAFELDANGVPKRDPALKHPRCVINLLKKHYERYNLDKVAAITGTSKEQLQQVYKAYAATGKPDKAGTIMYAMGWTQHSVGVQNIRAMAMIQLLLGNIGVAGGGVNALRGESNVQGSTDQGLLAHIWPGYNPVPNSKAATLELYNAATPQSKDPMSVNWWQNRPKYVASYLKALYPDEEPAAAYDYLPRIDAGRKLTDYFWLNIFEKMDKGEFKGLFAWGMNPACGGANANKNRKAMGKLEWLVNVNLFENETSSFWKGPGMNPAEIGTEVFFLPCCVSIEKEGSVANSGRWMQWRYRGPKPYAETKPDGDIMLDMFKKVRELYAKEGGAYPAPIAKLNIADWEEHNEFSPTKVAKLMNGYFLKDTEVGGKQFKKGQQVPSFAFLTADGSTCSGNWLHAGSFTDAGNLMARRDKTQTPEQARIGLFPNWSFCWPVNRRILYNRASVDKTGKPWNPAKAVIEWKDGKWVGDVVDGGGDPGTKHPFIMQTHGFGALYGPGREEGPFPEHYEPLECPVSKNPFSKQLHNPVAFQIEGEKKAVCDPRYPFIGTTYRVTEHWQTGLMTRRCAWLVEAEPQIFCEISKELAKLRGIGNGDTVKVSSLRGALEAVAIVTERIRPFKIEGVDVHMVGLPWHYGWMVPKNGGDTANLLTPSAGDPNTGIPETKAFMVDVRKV
T2 sequence (Q72EJ0 1-236 partner): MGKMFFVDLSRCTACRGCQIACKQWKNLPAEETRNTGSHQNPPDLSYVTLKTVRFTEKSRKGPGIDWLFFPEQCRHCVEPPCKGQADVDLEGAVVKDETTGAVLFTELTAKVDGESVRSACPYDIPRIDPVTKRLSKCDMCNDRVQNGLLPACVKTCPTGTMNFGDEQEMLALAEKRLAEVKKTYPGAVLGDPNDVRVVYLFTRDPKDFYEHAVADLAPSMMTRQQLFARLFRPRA

[4] = tested on: Desulfovibrio gigas (Dg) W-FDH1, wild-type natively-purified (W-FDH1^WT); settings: pH 8.0, 37 °C, 7.5 mM BV, 35 nM enzyme; Mota (2011); cited from earlier work
[5] = pH 7.6, RT, 2 mM BV, 1.4 nM enzyme, Oliveira et al (2020)

In the case of `O=CO` [formate], the Km [1] is given as 8 µM, the kcat [1] is given as 262 s⁻¹ and the kcat ([2]; 2 mM BV (anaerobic), full progress curve global fit) is given as 47 ± 2 s⁻¹. For the same compound, the kcat ([2]; BV (2 mM), anaerobic, initial velocities, 3 replicates, pH 8.0, 25 °C) was 68 ± 5 s⁻¹, the kcat ([2]; BV (20 mM), anaerobic, initial velocities, 3 replicates, pH 8.0, 25 °C) was 111 ± 16 s⁻¹ and the kcat ([3]; pH 7.6, RT, 2 mM BV, 1.4 nM enzyme, Alvarez-Malmagro et al (2021)) was 1144 s⁻¹. For the same compound, the kcat ([3]; pH 7.6, RT, 2 mM BV, 1.4 nM enzyme, Miller et al (2018)) was 1100 s⁻¹, the Km [3, 5] was 16.9 ± 2.8 µM and the kcat [3, 5] was 1310 ± 50 s⁻¹. For the same compound, the kcat ([3]; pH 7.6, RT, 2 mM BV, 1.4 nM enzyme, Szczesny et al (2019)) was 940 s⁻¹, the Km ([3]; value reported by Oliveira et al., as cited in text, BV) was 17 µM and the Km [4] was 51 µM. For the same compound, the kcat [4] was 174 s⁻¹.
